Tested on: P19 cells
Assay: In vitro differentiation assay of P19 cells (MAP-2 positive neurons)
Assay type: cell-based, murine
Conditions: RA stimulation alone (5×10^−7 M), day 8
Description: P19 cells were grown in a-minimum essential medium (aMEM) (Gibco) containing 7.5% calf serum, 2.5% fetal calf serum, and 0.4 μl/ml penicillin—streptomycin (Gibco), at 37° C., 5% CO2. Cells were replenished with fresh medium every 48 h.
The medium, including RA, BMP supplements and SMs, was replenished after 48 h. After 4 days, aggregates which formed during RA treatment were dispersed enzymatically (0.05% v/v trypsin-0.02% v/v EDTA) and mechanically and plated in tissue culture grade dishes. At this stage, cells were cultured in RA-, BMP- and SM-free medium, which was refreshed every 48 h. MAP-2 positive neurons were examined at day 8 (i.e., day 4 post-RA treatment) by immunofluorescence. Briefly, at day 7, cells were re-cultured in 24 well-plates with cover slips at a final concentration of 5×10^4 cells/well. On day 8, cells were washed with PBS, fixed with PFA 4% for 15 min, permeabilized with 0.5% Triton Tx, blocked with 10% FCS, 0.1% BSA and 0.05% Tween for 30 min, and stained with MAP2 rabbit mAb (1:100, D5G1, Cell Signaling) for 1 hr. The second antibody step was performed by labeling with Alexa Fluor® 488-conjugated IgG antibody to rabbit for 1 h (1:1000; Molecular Probes USA).
Next, the effect of the small molecules on neurogenesis in a P19 differentiation model was measured. […] Neuronal differentiation is marked by the expression of the neuronal marker MAP-2, while the addition of BMP-2 reduces the levels of this marker. Addition of the murine anti-BMP-2/4 monoclonal antibody reverses the effect of BMP-2 and induces acquisition of neuronal phenotype. Thus, the effect of SM1, SM7 and SM9 on the expression of the neuronal marker MAP-2 in P19 cells was examined in the presence of RA and BMP-2. Three concentrations of the molecules were tested: 0.625 μM, 1.25 μM and 2.5 μM.

Structure (SMILES) | MAP-2+ cells [%]
CC1=C(/C=C/C(C)=C/C=C/C(C)=C/C(=O)O)C(C)(C)CCC1 [RA, all-trans-retinoic acid, reference compound] | 73.8±6.5

Biological target: T1, BMP-2 (Homo sapiens, UniProt P12643)
T1 construct: purchased R&D Systems
T1 sequence (P12643 283-396): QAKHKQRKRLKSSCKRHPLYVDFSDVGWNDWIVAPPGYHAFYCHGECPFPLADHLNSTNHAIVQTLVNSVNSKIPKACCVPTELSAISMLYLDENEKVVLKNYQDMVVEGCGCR
Assay: ATDC5 cell based HTS bioassay: ALP production stimulated by BMP-2 and heparin
Parameters: species or system mouse
Conditions: inhibition of BMP-2-stimulated ALP in ATDC5 cells, 48 hours, tested at 0.62-10 μM
Description: Poly-L-lysine (Sigma-Aldrich) was added to 384-well plates and was removed after 30 min of incubation at RT. An assay medium containing DMEM/F12, 2% FBS, 100 units/ml penicillin, […] streptomycin (Biological industries) was added to each well. […] ATDC5 cells (Sigma-Aldrich) were harvested, re-suspended in assay medium and added to a final concentration of 2000 cells/well. Finally, heparin (Sigma-Aldrich) was added to a final concentration of 2 μg/ml. The cells were incubated for 48 hours at 37° C. with 5% CO2 in a humidified chamber in the presence or absence of potential small molecule inhibitors of BPM-2. After incubation, ALP levels and cell viability were determined using a completely automated protocol. Cells were washed with PBS, lysed using a lysis buffer containing 0.2% Triton X-100 in PBS supplemented with a protease inhibitor cocktail (Sigma-Aldrich) and incubated for 25 min at RT. ALP level was then determined by addition of CDP-Star® chemiluminescent substrate (Sigma-Aldrich) and measurement of luminescence after incubation for 25 min at RT in the dark. Cell viability was finally determined by addition of CellTiter-Glo® reagent (Biological Industries) and luminescence measurement after 10 min of incubation.
An ATDC5 cell based assay for assessing structure-function relationship of BMP-2 and BMP receptor IA was originally described in Keller et al (Nature Structural & Molecular Biology 2004 11, 481-488). In order to screen a large volume of potential therapeutic agents the ATDC5 cell based bioassay for detecting BMP inhibition was adapted for use in high throughput screening. The bioassay is based on the stimulation of alkaline phosphatase (ALP) production in mouse ATDC5 cells by administration of BMP-2 and heparin, and measurement of ALP levels in the presence of the potential inhibitors. […] This was achieved by using CellTiter-Glo® Luminescent Cell Viability Assay for assessing the cells' viability after the luminescent signal by CDP-Star® has faded. The simultaneous assessment of both ALP production and cells' viability was necessary since potentially toxic tested small molecules may lead to reduced ALP levels by cellular cytotoxicity rather than by interference with BMP-2 signaling. […] Particulars of the bioassay are detailed in the Experimental procedures section above.
A library of small molecules (SM) was screened using the High Throughput Screening bioassay described above. About 7600 SMs were screened, from the Maybridge library, which consists of organic “drug-like” compounds, using the pre-plated HitFinder™ Collection. […] The SM were tested at various concentrations, i.e. at 0.62 μM, 1.25 μM, 2.5 μM, 5 μM and 10 μM.

Structure (SMILES) | IC50 [µM]
c1ccc(C2=NNC(c3ccccc3)=NN2)cc1 [SM2, 1,4-Dihydro-3,6-diphenyl-1,2,4,5-tetrazine] | 8.5
C/C(=N\NC(=S)NC(C)(C)C)c1ccc(Oc2c(Cl)cncc2Cl)cc1 [SM8, 1-tert-butyl-3-[E-1-(4-(3,5-dichloropyridin-4-yl)oxyphenyl]ethylideneamino)thiourea] | 2.8

The remaining lines, values ahead:

IC50 [µM] | Structure (SMILES)
10 | O=C1c2cccc3cc([N+](=O)[O-])cc(c23)C(=O)N1c1ccc(S(=O)(=O)Nc2ccc(C(F)(F)F)cc2)cc1 [SM4, 4-(5-nitro-1,3-dioxobenzo(de)isoquinolin-2-yl)-N-[4-(trifluoromethyl)phenyl]benzenesulfonamide]
3.8 | CC(=O)NC(=O)CCSc1ccccc1C(=O)NC(C)=O [SM5, N1-acetyl-2-([3-(acetylamino)-3-oxopropyl]thio)benzamide]
2.6 | CCOC(=O)c1c(NC(=O)c2ccc([N+](=O)[O-])o2)nc(SC)n1Cc1cccs1 [SM3]

Reference: patent US11779565B2, “Small organic molecules for use in the treatment of neuroinflammatory disorders” (THE MEDICAL RESEARCH, INFRASTRUCTURE AND HEALTH SERVICES …, priority 2017, dated 2023)
